Among the data in PubChem BioAssay AID1259407 (Chemical Carcinogenesis Research Information System (CCRIS), 2018) are mutagenic call values, retold here.

The test system of this series is CCRIS mutagenicity, Ames/micronucleus/aberration tests. The experiment in a line: CCRIS mutagenicity studies.
Where [1] appears, read: Test System: AMES SALMONELLA TYPHIMURIUM, Strain/Indicator: TA98, Metabolic Activation: NONE, Method: STANDARD PLATE.
Where [2] appears, read: Test System: AMES SALMONELLA TYPHIMURIUM, Strain/Indicator: TA98, Metabolic Activation: RAT, LIVER, S-9, AROCLOR 1254, Method: STANDARD PLATE.
Setting [3] is: Test System: AMES SALMONELLA TYPHIMURIUM, Strain/Indicator: TA100, Metabolic Activation: NONE, Method: STANDARD PLATE.
Setting [4] is: Test System: AMES SALMONELLA TYPHIMURIUM, Strain/Indicator: TA100, Metabolic Activation: RAT, LIVER, S-9, AROCLOR 1254, Method: STANDARD PLATE.
Where [5] appears, read: Test System: AMES SALMONELLA TYPHIMURIUM, Strain/Indicator: TA1537, Metabolic Activation: NONE, Method: STANDARD PLATE.
Where [6] appears, read: Test System: AMES SALMONELLA TYPHIMURIUM, Strain/Indicator: TA1537, Metabolic Activation: RAT, LIVER, S-9, AROCLOR 1254, Method: STANDARD PLATE.
The mark [7] stands for this setting: Test System: AMES SALMONELLA TYPHIMURIUM, Strain/Indicator: TA98, Metabolic Activation: NONE, Method: PREINCUBATION
[8] abbreviates: Test System: AMES SALMONELLA TYPHIMURIUM, Strain/Indicator: TA100, Metabolic Activation: NONE, Method: PREINCUBATION

The source made the active and inactive calls. No rule for the calls is given here.

Consider `O=NN(CC(=O)O)CC1(O)OCC(O)C(O)C1O` (stereo not drawn), for which the mutagenic call under setting [1] was “inactive; negative”; the mutagenic call (Test System: AMES SALMONELLA TYPHIMURIUM, Strain/Indicator: TA98, Metabolic Activation: RAT, LIVER, S-9, AROCLOR 1254, Method: PREINCUBATION) was “inactive; negative”; the mutagenic call under setting [2] is “inactive; negative”; the mutagenic call under setting [3] was “inactive; negative”; the mutagenic call (Test System: AMES SALMONELLA TYPHIMURIUM, Strain/Indicator: TA100, Metabolic Activation: RAT, LIVER, S-9, AROCLOR 1254, Method: PREINCUBATION) is “inactive; negative”; the mutagenic call under setting [4] is “inactive; negative”. Moreover, the mutagenic call is, setting by setting: (Test System: AMES SALMONELLA TYPHIMURIUM, Strain/Indicator: TA1535, Metabolic Activation: NONE, Method: STANDARD PLATE) “inactive; negative”; (Test System: AMES SALMONELLA TYPHIMURIUM, Strain/Indicator: TA1535, Metabolic Activation: RAT, LIVER, S-9, AROCLOR 1254, Method: STANDARD PLATE) “inactive; negative”; under setting [5], “inactive; negative”; under setting [6], “inactive; negative”; (Test System: AMES SALMONELLA TYPHIMURIUM, Strain/Indicator: TA1538, Metabolic Activation: NONE, Method: STANDARD PLATE) “inactive; negative”; (Test System: AMES SALMONELLA TYPHIMURIUM, Strain/Indicator: TA1538, Metabolic Activation: RAT, LIVER, S-9, AROCLOR 1254, Method: STANDARD PLATE) “inactive; negative”.

With `COC1=C(OC)C(=O)C(C/C=C(\C)CC/C=C(\C)CC/C=C(\C)CC/C=C(\C)CC/C=C(\C)CC/C=C(\C)CC/C=C(\C)CC/C=C(\C)CC/C=C(\C)CCC=C(C)C)=C(C)C1=O`, the mutagenic call under setting [7] was “inactive; negative”; the mutagenic call (Test System: AMES SALMONELLA TYPHIMURIUM, Strain/Indicator: TA98, Metabolic Activation: RAT, LIVER, S-9, PHENOBARBITAL AND 5,6-BENZOFLAVONE, Method: PREINCUBATION) was “inactive; negative”; the mutagenic call under setting [8] was “inactive; negative”; the mutagenic call (Test System: AMES SALMONELLA TYPHIMURIUM, Strain/Indicator: TA100, Metabolic Activation: RAT, LIVER, S-9, PHENOBARBITAL AND 5,6-BENZOFLAVONE, Method: PREINCUBATION) was “inactive; negative”; the mutagenic call (Test System: AMES SALMONELLA TYPHIMURIUM, Strain/Indicator: TA1535, Metabolic Activation: NONE, Method: PREINCUBATION) was “inactive; negative”; the mutagenic call (Test System: AMES SALMONELLA TYPHIMURIUM, Strain/Indicator: TA1535, Metabolic Activation: RAT, LIVER, S-9, PHENOBARBITAL AND 5,6-BENZOFLAVONE, Method: PREINCUBATION) is “inactive; negative”. Moreover, the mutagenic call is “inactive; negative” (Test System: AMES SALMONELLA TYPHIMURIUM, Strain/Indicator: TA1537, Metabolic Activation: NONE, Method: PREINCUBATION); “inactive; negative” (Test System: AMES SALMONELLA TYPHIMURIUM, Strain/Indicator: TA1537, Metabolic Activation: RAT, LIVER, S-9, PHENOBARBITAL AND 5,6-BENZOFLAVONE, Method: PREINCUBATION); “inactive; negative” (Test System: E. COLI, Strain/Indicator: WP2UVRA, Metabolic Activation: NONE, Method: PREINCUBATION); “inactive; negative” (Test System: E. COLI, Strain/Indicator: WP2UVRA, Metabolic Activation: RAT, LIVER, S-9, PHENOBARBITAL AND 5,6-BENZOFLAVONE, Method: PREINCUBATION).

Regarding `Cn1ccnc1[N+](=O)[O-]`, the mutagenic call under setting [3] is “active; positive”.

In the case of `Nc1cc2nc3ccccc3nc2cc1N`, the mutagenic call by setting is: (Test System: AMES SALMONELLA TYPHIMURIUM, Strain/Indicator: TA98(1,8-DNP6), Metabolic Activation: NONE, Method: PREINCUBATION) “inactive; negative”; (Test System: AMES SALMONELLA TYPHIMURIUM, Strain/Indicator: TA98(1,8-DNP6), Metabolic Activation: S-9, Method: PREINCUBATION) “active; positive”; under setting [7], “inactive; negative”; under setting [1], “active; positive”; under setting [2], “active; positive”; (Test System: AMES SALMONELLA TYPHIMURIUM, Strain/Indicator: TA98, Metabolic Activation: S-9, Method: PREINCUBATION) “active; positive”. Further, the mutagenic call is, setting by setting: (Test System: AMES SALMONELLA TYPHIMURIUM, Strain/Indicator: TA98, Metabolic Activation: S-9, Method: SUSPENSION/PLATE) “active; positive”; (Test System: AMES SALMONELLA TYPHIMURIUM, Strain/Indicator: TA100(OAT-), Metabolic Activation: NONE, Method: PREINCUBATION) “inactive; negative”; (Test System: AMES SALMONELLA TYPHIMURIUM, Strain/Indicator: TA100(OAT-), Metabolic Activation: S-9, Method: PREINCUBATION) “inactive; negative”; under setting [8], “inactive; negative”; under setting [3], “inactive; negative”; under setting [4], “active; positive”. For the same compound, the mutagenic call is “active; positive” (Test System: AMES SALMONELLA TYPHIMURIUM, Strain/Indicator: TA100, Metabolic Activation: S-9, Method: PREINCUBATION); “active; positive” (Test System: AMES SALMONELLA TYPHIMURIUM, Strain/Indicator: TA1029, Metabolic Activation: S-9, Method: PREINCUBATION); “active; positive” under setting [5]; “active; positive” under setting [6]; “active; positive” (Test System: AMES SALMONELLA TYPHIMURIUM, Strain/Indicator: YG1024, Metabolic Activation: PLANT CELL-FREE EXTRACT, Method: PREINCUBATION); “active; positive” (Test System: AMES SALMONELLA TYPHIMURIUM, Strain/Indicator: YG1024, Metabolic Activation: S-9, Method: PREINCUBATION). For the same compound, the mutagenic call by setting is: (Test System: AMES SALMONELLA TYPHIMURIUM, Strain/Indicator: YG1029, Metabolic Activation: PLANT CELL-FREE EXTRACT, Method: PREINCUBATION) “active; positive”; (Test System: AMES SALMONELLA TYPHIMURIUM, Strain/Indicator: YG1029, Metabolic Activation: S-9, Method: PREINCUBATION) “active; positive”.
